The values that follow come from PubChem BioAssay (NCI).

Each structure is given as a SMILES string.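 96-well plates; 48 h exposure; 5 concentrations. Endpoints by linear interpolation between flanking doses. Not reached: highest tested concentration assigned. Here, GI50 denotes the concentration required for 50% inhibition of growth. At the TGI there is no net growth.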

Test systems include 786-0 renal; CAKI-1 renal; CCRF-CEM leukemia; EKVX NSCLC; HL-60(TB) leukemia; HT29 colon; LOX IMVI melanoma; NCI-H226 lung; SK-OV-3 ovarian; UACC-62 melanoma.
Common to all, as to test: NCI tumour cell line growth inhibition, 48 h

Take `CCCCCCCCCCCCOC1C(CNC(=O)C2OC3OC(C)(C)OC3C2NC(=O)CN2CCCCCC2)OC2OC(C)(C)OC21` (centres undefined): the GI50 was 10.4 µM in the experiment with 786-0 renal; 13 µM in the experiment on CAKI-1 renal; 4.58 µM with CCRF-CEM leukemia; 8.15 µM in the experiment on EKVX NSCLC; 1.87 µM with HL-60(TB) leukemia; 1.87 µM with HT29 colon. Besides, the GI50 was 3.17 µM in the experiment with LOX IMVI melanoma, 16.7 µM in the experiment with NCI-H226 lung, 16.2 µM in the experiment with SK-OV-3 ovarian and 1.83 µM with UACC-62 melanoma. For the same compound, the TGI in the experiment with 786-0 renal was 23.4 µM; with CAKI-1 renal, 26.8 µM; in the experiment on CCRF-CEM leukemia, 15.9 µM; in the experiment with EKVX NSCLC, 20.7 µM; with HL-60(TB) leukemia it was 4.39 µM; with HT29 colon, 3.74 µM. The TGI in the experiment with LOX IMVI melanoma came out at 9.25 µM; in the experiment on NCI-H226 lung, 38.1 µM; with SK-OV-3 ovarian it was 30.8 µM; with UACC-62 melanoma, 3.48 µM.

Consider `COc1ccc(Cn2cc3c(c2-c2cc(OC)c(OC)c(OC)c2)CCc2cnoc2-3)cc1[N+](=O)[O-]`, for which the GI50 in the experiment with 786-0 renal was 6.74 µM; in the experiment on CAKI-1 renal, 0.747 µM; in the experiment on CCRF-CEM leukemia, 0.788 µM; in the experiment on EKVX NSCLC, 1.43 µM; with HL-60(TB) leukemia it was 0.412 µM; with HT29 colon, 0.411 µM. The GI50 with LOX IMVI melanoma was 0.898 µM; in the experiment with NCI-H226 lung it was 4.33 µM; in the experiment with SK-OV-3 ovarian, 1.08 µM; with UACC-62 melanoma, 0.404 µM. Moreover, the TGI in the experiment on 786-0 renal was over 43.5 µM; in the experiment with CAKI-1 renal it was over 60.4 µM; with CCRF-CEM leukemia it was over 100 µM; with EKVX NSCLC it was over 100 µM; in the experiment with HL-60(TB) leukemia, 7.98 µM; in the experiment with HT29 colon, 2.28 µM. For the same compound, the TGI is over 100 µM with LOX IMVI melanoma, over 100 µM in the experiment on NCI-H226 lung, over 30.2 µM with SK-OV-3 ovarian and over 100 µM with UACC-62 melanoma.

For the compound `COC1=Nc2ccccc2S(=O)(=O)C=C1`, the TGI with 786-0 renal is 10.1 µM; with CCRF-CEM leukemia, over 100 µM; in the experiment on EKVX NSCLC, 32.1 µM; in the experiment with HT29 colon, 26.7 µM; in the experiment on LOX IMVI melanoma, 10.9 µM; in the experiment on NCI-H226 lung it was over 100 µM. Also, the TGI was over 100 µM in the experiment with SK-OV-3 ovarian and 37.4 µM in the experiment on UACC-62 melanoma. Besides, the GI50 is 0.256 µM with CAKI-1 renal, 2.85 µM in the experiment on CCRF-CEM leukemia and 1.95 µM in the experiment with HL-60(TB) leukemia.

For `C/C(Cc1ccc(Cl)cc1)=C(/c1ccc(Cl)cc1)c1ccc(OCCN(C)C)cc1`, the GI50 in the experiment with 786-0 renal is 4.55 µM; with CAKI-1 renal, 4.63 µM; with CCRF-CEM leukemia, 4.17 µM; in the experiment with EKVX NSCLC, 4.75 µM; with HL-60(TB) leukemia, 3.89 µM; in the experiment with HT29 colon, 1.36 µM. Further, the GI50 is 3.02 µM in the experiment with LOX IMVI melanoma, 4.99 µM with NCI-H226 lung, 5.42 µM in the experiment with SK-OV-3 ovarian and 5.19 µM with UACC-62 melanoma. In addition, the TGI came out at 9.78 µM with 786-0 renal; 8.98 µM with CAKI-1 renal; 12.9 µM in the experiment on CCRF-CEM leukemia; 9.22 µM in the experiment on EKVX NSCLC; 10 µM in the experiment with HL-60(TB) leukemia; 5.85 µM in the experiment with HT29 colon. The TGI with LOX IMVI melanoma turned out to be 7.18 µM; in the experiment with NCI-H226 lung it was 10.5 µM; in the experiment on SK-OV-3 ovarian, 10.5 µM; in the experiment with UACC-62 melanoma it was 9.75 µM.

In the case of `O=C1CCc2c(sc3[nH]c(=S)n(Cc4ccccc4)c(=O)c23)C1`, the GI50 in the experiment on 786-0 renal is 4 µM; in the experiment with CAKI-1 renal, 2.54 µM; in the experiment on CCRF-CEM leukemia it was 2.88 µM; in the experiment on EKVX NSCLC it was 3.58 µM; in the experiment with HL-60(TB) leukemia, 1.95 µM; with HT29 colon, 3.84 µM. Moreover, the GI50 in the experiment with LOX IMVI melanoma is 3.38 µM; with NCI-H226 lung, 4.05 µM; with SK-OV-3 ovarian it was 2.68 µM; in the experiment with UACC-62 melanoma, 2.54 µM. In addition, the TGI in the experiment on 786-0 renal was over 100 µM; in the experiment with CAKI-1 renal it was 8.31 µM; with CCRF-CEM leukemia, 10.3 µM; in the experiment on EKVX NSCLC it was over 100 µM; in the experiment on HL-60(TB) leukemia it was 20.2 µM; in the experiment on HT29 colon, 27 µM. In addition, the TGI is 12.5 µM in the experiment with LOX IMVI melanoma, over 100 µM in the experiment with NCI-H226 lung, 7.05 µM with SK-OV-3 ovarian and 13.2 µM in the experiment on UACC-62 melanoma.

`C[C@H]1C(Oc2ccc(O)cc2)OC2OC3(C)CCC4[C@H](C)CCC1C24OO3` (some centres undefined): the GI50 is 10.7 µM with 786-0 renal; 18.5 µM in the experiment with CAKI-1 renal; 8.52 µM in the experiment with CCRF-CEM leukemia; 6.42 µM in the experiment with EKVX NSCLC; 0.57 µM with HL-60(TB) leukemia; 8.86 µM in the experiment on HT29 colon. Also, the GI50 was 11.5 µM with LOX IMVI melanoma, 15.9 µM with NCI-H226 lung, 21.1 µM with SK-OV-3 ovarian and 12.3 µM in the experiment on UACC-62 melanoma. The TGI in the experiment on 786-0 renal is 27.2 µM; in the experiment with CAKI-1 renal, 40.8 µM; in the experiment with CCRF-CEM leukemia, over 100 µM; in the experiment on EKVX NSCLC, 23.1 µM; in the experiment on HL-60(TB) leukemia, 24.4 µM; with HT29 colon, 27.4 µM. Further, the TGI is 30.6 µM with LOX IMVI melanoma, 31.2 µM with NCI-H226 lung, 47.8 µM in the experiment with SK-OV-3 ovarian and 25.5 µM in the experiment with UACC-62 melanoma.

For the compound `O=C1c2c(O)cc(O)cc2OC(c2ccc(O)cc2O)C1O` (centres undefined), the GI50 with 786-0 renal, in the experiment on CCRF-CEM leukemia, with HL-60(TB) leukemia, in the experiment on HT29 colon, with LOX IMVI melanoma and with NCI-H226 lung was over 100 µM throughout. For the same compound, the GI50 with SK-OV-3 ovarian and in the experiment with UACC-62 melanoma was over 100 µM each time. Moreover, the TGI with 786-0 renal, in the experiment with CAKI-1 renal, in the experiment with CCRF-CEM leukemia, in the experiment on EKVX NSCLC, in the experiment on HL-60(TB) leukemia and in the experiment with HT29 colon was over 100 µM each time. Moreover, the TGI in the experiment on LOX IMVI melanoma, with NCI-H226 lung, with SK-OV-3 ovarian and with UACC-62 melanoma was over 100 µM in each case.

For `COc1ccc(C(=O)COc2cccc(/C=C3\CSc4ccc(C)cc4C3=O)c2)cc1`, the GI50 with 786-0 renal is 38.5 µM; in the experiment on CAKI-1 renal, 28.7 µM; in the experiment with CCRF-CEM leukemia it was 2.76 µM; with EKVX NSCLC, 25.1 µM; in the experiment on HL-60(TB) leukemia it was 5.44 µM; with HT29 colon, 6.02 µM. Also, the GI50 with LOX IMVI melanoma is 2.53 µM; with NCI-H226 lung, over 100 µM; in the experiment with SK-OV-3 ovarian it was 74.2 µM; with UACC-62 melanoma, 14.2 µM. Besides, the TGI was over 100 µM with 786-0 renal; over 100 µM in the experiment with CAKI-1 renal; over 100 µM with CCRF-CEM leukemia; over 100 µM with EKVX NSCLC; 43.3 µM in the experiment on HL-60(TB) leukemia; over 100 µM in the experiment with HT29 colon. For the same compound, the TGI is 8.06 µM in the experiment on LOX IMVI melanoma, over 100 µM in the experiment with NCI-H226 lung, over 100 µM with SK-OV-3 ovarian and over 100 µM in the experiment on UACC-62 melanoma.
